Test results: PubChem BioAssay AID192 (DTP/NCI, 2004)
Values joined by “and” are separate entries in the source; they are usually repeats but may differ in a detail not shown here. Identical values can stand only once. Toxic doses and inconclusive results are not listed.

Tested on: BDF1 mice, B16 melanoma ip, median survival T/C
Experiment: NCI In Vivo Anticancer Drug Screen. Data for tumor model B16 Melanoma (intraperitoneal) in B6D2F1 (BDF1) mice
Conditions: endpoint: median survival time, higher = longer survival
Summary of the method: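 Values are ratios of treated (T) to vehicle-control (C) measurements of survival or tumor size in tumor-bearing mice.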

[1] = dose: 25.0 mg/kg/injection, schedule: Q01DX009 (ip), vehicle: Klucel (hydroxypropylcellulose) (HPC)
[2] = dose: 50.0 mg/kg/injection, schedule: Q01DX009 (ip), vehicle: Klucel (hydroxypropylcellulose) (HPC)
[3] = dose: 100.0 mg/kg/injection, schedule: Q01DX009 (ip), vehicle: Klucel (hydroxypropylcellulose) (HPC)
[4] = dose: 200.0 mg/kg/injection, schedule: Q01DX009 (ip), vehicle: Klucel (hydroxypropylcellulose) (HPC)
[5] = dose: 400.0 mg/kg/injection, schedule: Q01DX009 (ip), vehicle: Klucel (hydroxypropylcellulose) (HPC)
[6] = dose: 100.0 mg/kg/injection, schedule: Q01DX009 (ip), vehicle: saline
[7] = dose: 200.0 mg/kg/injection, schedule: Q01DX009 (ip), vehicle: saline
[8] = dose: 50.0 mg/kg/injection, schedule: Q01DX009 (ip), vehicle: saline with Tween-80
[9] = dose: 100.0 mg/kg/injection, schedule: Q01DX009 (ip), vehicle: saline with Tween-80
[10] = dose: 200.0 mg/kg/injection, schedule: Q01DX009 (ip), vehicle: saline with Tween-80
[11] = dose: 6.25 mg/kg/injection, schedule: Q01DX009 (ip), vehicle: saline with Tween-80
[12] = dose: 12.5 mg/kg/injection, schedule: Q01DX009 (ip), vehicle: saline with Tween-80
[13] = dose: 25.0 mg/kg/injection, schedule: Q01DX009 (ip), vehicle: saline with Tween-80
[14] = dose: 50.0 mg/kg/injection, schedule: Q04DX003 (ip), vehicle: saline with Tween-80
[15] = dose: 400.0 mg/kg/injection, schedule: Q01DX009 (ip), vehicle: saline
[16] = dose: 0.75 mg/kg/injection, schedule: Q01DX009 (ip), vehicle: Klucel (hydroxypropylcellulose) (HPC)
[17] = dose: 1.5 mg/kg/injection, schedule: Q01DX009 (ip), vehicle: Klucel (hydroxypropylcellulose) (HPC)
[18] = dose: 3.0 mg/kg/injection, schedule: Q01DX009 (ip), vehicle: Klucel (hydroxypropylcellulose) (HPC)

In the case of `CNC(=O)Nc1ccc(C(=O)NC(C)C)cc1`, the T/C [1] is reported as 98 % of control, the T/C [2] is reported as 97 % of control and the T/C [3] is reported as 96 % of control. The T/C [4] was 100 % of control and the T/C [5] was 88 % of control.

`Cn1c(=O)c2c(ncn2CCO)n(C)c1=O` was tested, and the T/C [6] was 120 % of control and the T/C [7] was 122 % of control.

With `CC(=O)Nc1cccc([N+](=O)[O-])c1` the T/C [8] was 109 % of control, the T/C [9] was 97 % of control and the T/C [10] was 97 % of control.

`ClC1(Cl)C2C=CC=CCC21` (stereo unspecified) was tested, and the T/C (dose: 50.0 mg/kg/injection, schedule: Q04DX003 (ip), vehicle: other) was 107 % of control, the T/C (dose: 100.0 mg/kg/injection, schedule: Q04DX003 (ip), vehicle: other) was 102 % of control and the T/C (dose: 200.0 mg/kg/injection, schedule: Q04DX003 (ip), vehicle: other) was 86 % of control.

With `C/C(=N\NC(N)=O)c1cccc(/C(C)=N/NC(N)=O)n1` the T/C [11] was 91 % of control, the T/C [12] was 96 % of control and the T/C [13] was 86 % of control. The T/C [8] was 88 % of control and the T/C [9] was 86 % of control.

For `ClC=P(c1ccccc1)(c1ccccc1)c1ccccc1`, the T/C [12] was 90 % of control, the T/C [13] was 90 % of control and the T/C (dose: 33.0 mg/kg/injection, schedule: Q04DX003 (ip), vehicle: saline with Tween-80) was 91 % of control. For the same compound, the T/C [8] was 92 % of control and 95 % of control, the T/C [14] was 152 % of control and the T/C (dose: 75.0 mg/kg/injection, schedule: Q04DX003 (ip), vehicle: saline with Tween-80) was 86 % of control.

With `Cc1ccc(NC(=O)Nc2ccc(Cl)c(Cl)c2)c(C)c1` the T/C [1] was 109 % of control, the T/C [2] was 103 % of control and the T/C [3] was 92 % of control.

With `CCN(C=O)CC` the T/C [6] was 117 % of control, the T/C [7] was 115 % of control and the T/C [15] was 107 % of control.

In the case of `CCc1cc(Cc2cc(CC)cc(C(C)(C)C)c2O)c(O)c(C(C)(C)C)c1`, the T/C [3] is reported as 88 % of control, the T/C [4] is reported as 88 % of control and the T/C [5] is reported as 89 % of control.

For `O=c1oc(-c2ccccc2Cl)nc2cc(Cl)ccc12`, the T/C [1] was 113 % of control and the T/C [2] was 90 % of control.

With `CO[C@@H](C=O)O[C@@H](C=O)CO` the T/C [11] was 100 % of control, the T/C [12] was 108 % of control and the T/C (dose: 12.5 mg/kg/injection, schedule: Q04DX003 (ip), vehicle: saline with Tween-80) was 96 % of control. For the same compound, the T/C [13] was 103 % of control, the T/C (dose: 25.0 mg/kg/injection, schedule: Q01DX009 (ip), vehicle: saline) was 107 % of control and the T/C (dose: 25.0 mg/kg/injection, schedule: Q04DX003 (ip), vehicle: saline with Tween-80) was 108 % of control. For the same compound, the T/C [8] was 124 % of control, the T/C (dose: 50.0 mg/kg/injection, schedule: Q01DX009 (ip), vehicle: saline) was 100 % of control and the T/C [14] was 102 % of control. The T/C (dose: 50.0 mg/kg/injection, schedule: Q04DX003 (ip), vehicle: saline) was 104 % of control and the T/C (dose: 100.0 mg/kg/injection, schedule: Q04DX003 (ip), vehicle: saline with Tween-80) was 100 % of control.

In the case of `O=C1C=C2C(=CCOC2O)O1` (stereo unspecified), the T/C (dose: 0.39 mg/kg/injection, schedule: Q01DX009 (ip), vehicle: Klucel (hydroxypropylcellulose) (HPC)) is reported as 96 % of control, the T/C [16] is reported as 106 % of control and the T/C [17] is reported as 96 % of control. For the same compound, the T/C [18] was 86 % of control.

`O=C1NC(C2CCC3CN32)C(=O)NC1C1CCC2CN21` (stereo unspecified) was tested, and the T/C (dose: 0.05 mg/kg/injection, schedule: Q01DX009 (ip), vehicle: saline) was 102 % of control, the T/C (dose: 0.1 mg/kg/injection, schedule: Q01DX009 (ip), vehicle: saline) was 107 % of control and the T/C (dose: 0.2 mg/kg/injection, schedule: Q01DX009 (ip), vehicle: saline) was 108 % of control. The T/C (dose: 0.4 mg/kg/injection, schedule: Q01DX009 (ip), vehicle: saline) was 115 % of control.

In the case of `Cc1ccc2c(c1)CC(C)([CH2][Hg][Cl])O2` (stereo unspecified), the T/C [16] is reported as 100 % of control, the T/C (dose: 0.75 mg/kg/injection, schedule: Q04DX003 (ip), vehicle: Klucel (hydroxypropylcellulose) (HPC)) is reported as 95 % of control and the T/C [17] is reported as 93 % of control. The T/C (dose: 1.5 mg/kg/injection, schedule: Q04DX003 (ip), vehicle: Klucel (hydroxypropylcellulose) (HPC)) was 100 % of control, the T/C [18] was 92 % of control and 95 % of control and the T/C (dose: 3.0 mg/kg/injection, schedule: Q04DX003 (ip), vehicle: Klucel (hydroxypropylcellulose) (HPC)) was 93 % of control and 95 % of control.

`O=C(NP(=O)(N1CC1)N1CC1)c1cc(I)ccc1I` was tested, and the T/C (dose: 1.0 mg/kg/injection, schedule: Q02DX009 (ip), vehicle: saline with Tween-80) was 100 % of control, the T/C (dose: 1.0 mg/kg/injection, schedule: Q02DX009 (ip), vehicle: saline) was 104 % of control and the T/C (dose: 2.0 mg/kg/injection, schedule: Q02DX009 (ip), vehicle: saline with Tween-80) was 106 % of control. The T/C (dose: 2.0 mg/kg/injection, schedule: Q02DX009 (ip), vehicle: saline) was 107 % of control, the T/C (dose: 4.0 mg/kg/injection, schedule: Q02DX009 (ip), vehicle: saline with Tween-80) was 93 % of control and the T/C (dose: 4.0 mg/kg/injection, schedule: Q02DX009 (ip), vehicle: saline) was 98 % of control. The T/C (dose: 8.0 mg/kg/injection, schedule: Q02DX009 (ip), vehicle: saline with Tween-80) was 120 % of control, the T/C (dose: 8.0 mg/kg/injection, schedule: Q02DX009 (ip), vehicle: saline) was 112 % of control and the T/C (dose: 16.0 mg/kg/injection, schedule: Q02DX009 (ip), vehicle: saline) was 116 % of control. For the same compound, the T/C (dose: 32.0 mg/kg/injection, schedule: Q02DX009 (ip), vehicle: saline) was 107 % of control, the T/C (dose: 64.0 mg/kg/injection, schedule: Q02DX009 (ip), vehicle: saline with Tween-80) was 92 % of control and the T/C (dose: 64.0 mg/kg/injection, schedule: Q02DX009 (ip), vehicle: saline) was 101 % of control.

With `Cc1cc(NS(=O)(=O)c2ccccc2)c2c(c1NS(=O)(=O)c1ccccc1)CC=CC2` the T/C (dose: 100.0 mg/kg/injection, schedule: Q04DX003 (ip), vehicle: Klucel (hydroxypropylcellulose) (HPC)) was 97 % of control, the T/C (dose: 200.0 mg/kg/injection, schedule: Q04DX003 (ip), vehicle: Klucel (hydroxypropylcellulose) (HPC)) was 94 % of control and the T/C (dose: 400.0 mg/kg/injection, schedule: Q04DX003 (ip), vehicle: Klucel (hydroxypropylcellulose) (HPC)) was 86 % of control.

In the case of `CC1(C)COCN1COC1CCCCC1`, the T/C [12] is reported as 100 % of control, the T/C [13] is reported as 105 % of control and 115 % of control and the T/C [8] is reported as 105 % of control and 119 % of control. The T/C [10] was 110 % of control.

With `CCCCCCCCCCCCCC(=O)OC12CC(C)C3(O)C(C=C(CO)C(O)C4(O)C(=O)C(C)=CC43)C1C2(C)C` (stereo unspecified) the T/C (dose: 0.01 mg/kg/injection, schedule: Q01DX009 (ip), vehicle: saline + alcohol) was 99 % of control, the T/C (dose: 0.03 mg/kg/injection, schedule: Q01DX009 (ip), vehicle: saline + alcohol) was 107 % of control and the T/C (dose: 0.06 mg/kg/injection, schedule: Q01DX009 (ip), vehicle: saline + alcohol) was 104 % of control. The T/C (dose: 0.12 mg/kg/injection, schedule: Q01DX009 (ip), vehicle: saline + alcohol) was 94 % of control and the T/C (dose: 0.13 mg/kg/injection, schedule: Q01DX009 (ip), vehicle: saline + alcohol) was 100 % of control.

`COC(=O)c1c(C)cc(OC(=O)c2c(C)c(Cl)c(O)c(Cl)c2O)cc1O` was tested, and the T/C (dose: 5.0 mg/kg/injection, schedule: Q01DX009 (ip), vehicle: Klucel (hydroxypropylcellulose) (HPC)) was 97 % of control, the T/C (dose: 10.0 mg/kg/injection, schedule: Q01DX009 (ip), vehicle: Klucel (hydroxypropylcellulose) (HPC)) was 94 % of control and the T/C (dose: 20.0 mg/kg/injection, schedule: Q01DX009 (ip), vehicle: Klucel (hydroxypropylcellulose) (HPC)) was 100 % of control.

With `CC[CH](C)[Hg][c]1cccc2ccccc12` (stereo unspecified) the T/C [1] was 105 % of control and the T/C [2] was 91 % of control.

In the case of `CCCCNC=O`, the T/C [6] is reported as 102 % of control, the T/C [7] is reported as 102 % of control and the T/C [15] is reported as 116 % of control.

`C=C(C)C(=O)OCC12CCC(C)=CC1OC1C(O)C(OC(=O)CCl)C2(C)C12CO2` (stereo unspecified) was tested, and the T/C (dose: 0.25 mg/kg/injection, schedule: Q01DX009 (ip), vehicle: water) was 122 % of control, the T/C (dose: 0.5 mg/kg/injection, schedule: Q01DX009 (ip), vehicle: water) was 124 % of control and the T/C (dose: 1.0 mg/kg/injection, schedule: Q01DX009 (ip), vehicle: water) was 152 % of control. The T/C (dose: 2.0 mg/kg/injection, schedule: Q01DX009 (ip), vehicle: water) was 152 % of control.
